In article PMC10329973 (Clinical pharmacology in drug development, 2023):
Read-outs that look alike come from different tables or passages of the source.

Legend:
[1] = Single ascending dose study NP10679-101, plasma pharmacokinetics; format: in vivo, human; conditions: for half-life: healthy volunteers, SAD and MAD studies overall; for Vd: SAD
[2] = Multiple ascending dose study NP10679-102, plasma pharmacokinetics; format: in vivo; conditions: human, iv; for Cmax / Tmax: MAD; for half-life: T 1/2, MAD
healthy adult volunteers = experiment: Single ascending dose study NP10679-101, safety and tolerability; format: in vivo
Plasma protein binding = format: in vitro ADME, mice, rats, dogs, and humans; conditions: mouse, rat, dog, human
rats and dogs = experiment: Repeat-dose toxicity studies of up to 14 days; format: in vivo; conditions: repeat-dose toxicity studies up to 14 days, dose-limiting effect in both species
[3] = mouse; cited from earlier work
[4] = tested on: murine MCAO model of ischemic brain injury; conditions: cited from earlier work
over 40 CNS targets = conditions: cited from earlier work
[5] = mouse, minimum effective dose 2 mg/kg IP; cited from earlier work
GABAergic receptors = conditions: cited from earlier work
pre-clinical models = conditions: cited from earlier work
[6] = 25 mg, 25 mg IV once daily, day 1
[7] = 25 mg, 25 mg IV once daily, day 2
[8] = 25 mg, 25 mg IV once daily, day 3
[9] = 25 mg, 25 mg IV once daily, day 4
[10] = 25 mg, 25 mg IV once daily, day 5
[11] = 50 mg, 50 mg IV once daily, day 1
[12] = 50 mg, 50 mg IV once daily, day 2
[13] = 50 mg, 50 mg IV once daily, day 3
[14] = 50 mg, 50 mg IV once daily, day 4
[15] = 50 mg, 50 mg IV once daily, day 5
[16] = 100 mg, 100 mg IV once daily, day 1
[17] = 100 mg, 100 mg IV once daily, day 2
[18] = 100 mg, 100 mg IV once daily, day 3
[19] = 100 mg, 100 mg IV once daily, day 4
[20] = 100 mg, 100 mg IV once daily, day 5

SMILES: O=C1CCc2cc(OC[C@H](O)CN3CCN(c4ccc(C(F)(F)F)cc4)CC3)ccc2N1 [NP10679, (R)-6-(2-Hydroxy-3-(4-(4-(trifluoromethyl)phenyl)piperazin-1-yl)propoxy)-3,4-dihydroquinolin-2(1H)-one]
- half-life [1]: ~ 20 h
- clearance ([1]; human, plasma, intravenous): 163 to 200 mL/min
- half-life ([1]; human, plasma, intravenous, half-life): 20 h
- Vd ([1]; human, plasma, intravenous, volume of distribution): > 221 L
- AUC(0-inf) ([1]; human, plasma, iv, 5 mg): 0.553 ± 0.204 µg·h/mL
- AUC(0-t) ([1]; human, plasma, iv, 5 mg): 0.335 ± 0.046 µg·h/mL
- Cmax ([1]; human, plasma, iv, 5 mg): 0.027 ± 0.015 µg/mL
- clearance ([1]; human, plasma, iv, 5 mg): 163 mL/min
- Vd ([1]; human, plasma, iv, 5 mg, VSS, single IV infusion 5 mg, mean ± SD): 435 ± 178 L
- Vd ([1]; human, plasma, iv, 5 mg, Vd, area, mean, single IV infusion 5 mg): 396 L
- AUC(0-inf) ([1]; human, plasma, iv, 15 mg): 1.28 ± 0.227 µg·h/mL
- AUC(0-t) ([1]; human, plasma, iv, 15 mg): 1.14 ± 0.233 µg·h/mL
- Cmax ([1]; human, plasma, iv, 15 mg): 0.099 ± 0.067 µg/mL
- clearance ([1]; human, plasma, iv, 15 mg): 200 mL/min
- Vd ([1]; human, plasma, iv, 15 mg, VSS, single IV infusion 15 mg, mean ± SD): 306 ± 41 L
- Vd ([1]; human, plasma, iv, 15 mg, Vd, area, mean, single IV infusion 15 mg): 346 L
- AUC(0-inf) ([1]; human, plasma, iv, 50 mg): 4.68 ± 0.797 µg·h/mL
- AUC(0-t) ([1]; human, plasma, iv, 50 mg): 3.98 ± 0.544 µg·h/mL
- Cmax ([1]; human, plasma, iv, 50 mg): 0.415 ± 0.107 µg/mL
- clearance ([1]; human, plasma, iv, 50 mg): 183 mL/min
- Vd ([1]; human, plasma, iv, 50 mg, VSS, single IV infusion 50 mg, mean ± SD): 255 ± 20 L
- Vd ([1]; human, plasma, iv, 50 mg, Vd, area, mean, single IV infusion 50 mg): 286 L
- AUC(0-inf) ([1]; human, plasma, iv, 100 mg): 9.86 ± 3.22 µg·h/mL
- AUC(0-t) ([1]; human, plasma, iv, 100 mg): 9.37 ± 3.09 µg·h/mL
- Cmax ([1]; human, plasma, iv, 100 mg): 0.746 ± 0.223 µg/mL
- clearance ([1]; human, plasma, iv, 100 mg): 183 mL/min
- Vd ([1]; human, plasma, iv, 100 mg, VSS, single IV infusion 100 mg, mean ± SD): 259 ± 57 L
- Vd ([1]; human, plasma, iv, 100 mg, Vd, area, mean, single IV infusion 100 mg): 317 L
- AUC(0-inf) ([1]; human, plasma, iv, 150 mg): 13.9 ± 1.28 µg·h/mL
- AUC(0-t) ([1]; human, plasma, iv, 150 mg): 13.6 ± 1.22 µg·h/mL
- Cmax ([1]; human, plasma, iv, 150 mg): 0.954 ± 0.37 µg/mL
- clearance ([1]; human, plasma, iv, 150 mg): 183 mL/min
- Vd ([1]; human, plasma, iv, 150 mg, VSS, single IV infusion 150 mg, mean ± SD): 250 ± 23 L
- Vd ([1]; human, plasma, iv, 150 mg, Vd, area, mean, single IV infusion 150 mg): 286 L
- AUC(0-inf) ([1]; human, plasma, iv, 200 mg): 20.2 ± 4.6 µg·h/mL
- AUC(0-t) ([1]; human, plasma, iv, 200 mg): 19.7 ± 4.37 µg·h/mL
- Cmax ([1]; human, plasma, iv, 200 mg): 2.07 ± 0.798 µg/mL
- clearance ([1]; human, plasma, iv, 200 mg): 167 mL/min
- Vd ([1]; human, plasma, iv, 200 mg, VSS, single IV infusion 200 mg, mean ± SD): 221 ± 34 L
- Vd ([1]; human, plasma, iv, 200 mg, Vd, area, mean, single IV infusion 200 mg): 245 L
- AUC(0-t) ([2]; 25 mg, AUC 0–24, MAD, 25 mg IV once daily, day 1): 1.47 ± 0.186 µg·h/mL
- AUC(0-t) ([2]; 25 mg, AUC 0–24, MAD, 25 mg IV once daily, day 2): 1.92 ± 0.305 µg·h/mL
- AUC(0-t) ([2]; 25 mg, AUC 0–24, MAD, 25 mg IV once daily, day 3): 2.09 ± 0.303 µg·h/mL
- AUC(0-t) ([2]; 25 mg, AUC 0–24, MAD, 25 mg IV once daily, day 4): 2.17 ± 0.397 µg·h/mL
- AUC(0-t) ([2]; 25 mg, AUC 0–24, MAD, 25 mg IV once daily, day 5): 2.26 ± 0.478 µg·h/mL
- AUC(0-t) ([2]; 25 mg, AUC 0–96, MAD, 25 mg IV once daily, day 5): 3.88 ± 1.14 µg·h/mL
- Cmax [2, 6]: 0.208 ± 0.072 µg/mL
- Cmax [2, 7]: 0.211 ± 0.057 µg/mL
- Cmax [2, 8]: 0.207 ± 0.035 µg/mL
- Cmax [2, 9]: 0.25 ± 0.034 µg/mL
- Cmax [2, 10]: 0.213 ± 0.026 µg/mL
- half-life [2, 6]: 15 ± 3 h
- half-life [2, 7]: 17 ± 2 h
- half-life [2, 8]: 16 ± 3 h
- half-life [2, 9]: 19 ± 5 h
- half-life [2, 10]: 36 ± 15 h
- Tmax [2, 6]: 0.5 h
- Tmax [2, 7]: 0.9 ± 0.8 h
- Tmax [2, 8]: 0.8 ± 0.4 h
- Tmax [2, 9]: 0.5 h
- Tmax [2, 10]: 0.5 h
- AUC(0-t) ([2]; 50 mg, AUC 0–24, MAD, 50 mg IV once daily, day 1): 2.65 ± 0.283 µg·h/mL
- AUC(0-t) ([2]; 50 mg, AUC 0–24, MAD, 50 mg IV once daily, day 2): 3.3 ± 0.479 µg·h/mL
- AUC(0-t) ([2]; 50 mg, AUC 0–24, MAD, 50 mg IV once daily, day 3): 3.89 ± 0.424 µg·h/mL
- AUC(0-t) ([2]; 50 mg, AUC 0–24, MAD, 50 mg IV once daily, day 4): 4.11 ± 0.485 µg·h/mL
- AUC(0-t) ([2]; 50 mg, AUC 0–24, MAD, 50 mg IV once daily, day 5): 4.29 ± 0.5 µg·h/mL
- AUC(0-t) ([2]; 50 mg, AUC 0–96, MAD, 50 mg IV once daily, day 5): 6.96 ± 1.17 µg·h/mL
- Cmax [2, 11]: 0.376 ± 0.099 µg/mL
- Cmax [2, 12]: 0.276 ± 0.06 µg/mL
- Cmax [2, 13]: 0.335 ± 0.073 µg/mL
- Cmax [2, 14]: 0.389 ± 0.116 µg/mL
- Cmax [2, 15]: 0.394 ± 0.072 µg/mL
- half-life [2, 11]: 18 ± 4 h
- half-life [2, 12]: 18 ± 3 h
- half-life [2, 13]: 26 ± 16 h
- half-life [2, 14]: 16 ± 1 h
- half-life [2, 15]: 21 ± 3 h
- Tmax [2, 11]: 0.8 ± 0.8 h
- Tmax [2, 12]: 1 ± 0.4 h
- Tmax [2, 13]: 0.8 ± 0.5 h
- Tmax [2, 14]: 0.8 ± 0.5 h
- Tmax [2, 15]: 0.7 ± 0.4 h
- AUC(0-t) ([2]; 100 mg, AUC 0–24, MAD, 100 mg IV once daily, day 1): 5.63 ± 0.625 µg·h/mL
- AUC(0-t) ([2]; 100 mg, AUC 0–24, MAD, 100 mg IV once daily, day 2): 7.32 ± 0.279 µg·h/mL
- AUC(0-t) ([2]; 100 mg, AUC 0–24, MAD, 100 mg IV once daily, day 3): 8.71 ± 0.458 µg·h/mL
- AUC(0-t) ([2]; 100 mg, AUC 0–24, MAD, 100 mg IV once daily, day 4): 9.51 ± 1.2 µg·h/mL
- AUC(0-t) ([2]; 100 mg, AUC 0–24, MAD, 100 mg IV once daily, day 5): 8.98 ± 0.376 µg·h/mL
- AUC(0-t) ([2]; 100 mg, AUC 0–96, MAD, 100 mg IV once daily, day 5): 13.9 ± 0.962 µg·h/mL
- Cmax [2, 16]: 1.24 ± 1.15 µg/mL
- Cmax [2, 17]: 0.57 ± 0.029 µg/mL
- Cmax [2, 18]: 0.812 ± 0.19 µg/mL
- Cmax [2, 19]: 0.873 ± 0.236 µg/mL
- Cmax [2, 20]: 1.08 ± 0.295 µg/mL
- half-life [2, 16]: 22 ± 5 h
- half-life [2, 17]: 22 ± 5 h
- half-life [2, 18]: 22 ± 5 h
- half-life [2, 19]: 34 ± 28 h
- half-life [2, 20]: 13 ± 5 h
- Tmax [2, 16]: 0.5 h
- Tmax [2, 17]: 0.8 ± 0.3 h
- Tmax [2, 18]: 0.5 h
- Tmax [2, 19]: 0.6 ± 0.3 h
- Tmax [2, 20]: 0.5 h
- dissociative symptoms or cognitive impairment (CADSS, DSST) (healthy adult volunteers; SAD): no evidence
- serious adverse events (SAEs) (healthy adult volunteers; SAD): No serious adverse events
- vital signs or ECGs (healthy adult volunteers; SAD): no clinically significant changes
- changes in mean values of HDRS, MMSE, SBQ-R, GAD-7 and CADSS (healthy adult volunteers; SAD study): no detectable changes
- subjects reaching a level 3 score on the MOAA/S (healthy adult volunteers; SAD, 200 mg): no subject
- subjects with conjunctival and scleral hyperemia (healthy adult volunteers; SAD, 200 mg): 3 of 6
- subjects presenting with somnolence (healthy adult volunteers; SAD, at doses of 50 mg - 200 mg): 5 of 6
- subjects presenting with somnolence (healthy adult volunteers; SAD, at each of doses 5 and 15 mg): One of 6
- blood pressure (both systolic and diastolic) (healthy adult volunteers; SAD, highest two doses): non-clinically significant lower blood pressure
- subjects describing intrusive thoughts (healthy adult volunteers; SAD, single 150 mg dose): one subject
- Bond-Lader VAS scale (healthy adult volunteers; SAD, starting at 50 mg through 200 mg): moderate increases
- fraction unbound (Plasma protein binding): 0.01 to 0.026
- adverse effect directly related to IV administration (rats and dogs): sedation
- oral availability F% [3]: 76%
- minimum effective dose in the MCAO model ([4]; IP, mouse): 2 mg/kg
- infarct volume ([4]; administered 15 minutes prior to occlusion): effective in reducing infarct volume
- activity at over 40 CNS targets (over 40 CNS targets): lacks demonstrable activity
- AUC(0-inf) [5]: 5.69 µg·h/mL
- Cmax [5]: 0.581 µg/mL
- activity at GABAergic receptors (GABAergic receptors): does not have activity
- somnolence in pre-clinical models (pre-clinical models): leads to somnolence at doses above those necessary to achieve efficacy
